Assay results from PubChem BioAssay (NCI).
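Protocol summary: plate cells (96-well), add compound at 5 concentrations, incubate 48 h, interpolate endpoints linearly. TGI marks complete inhibition of growth.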

What was measured:
Assay in all cases: NCI anticancer screen, dose series, 48 h
UO-31 renal = test system: UO-31 renal
SR leukemia = test system: SR leukemia
K-562 leukemia = test system: K-562 leukemia
NCI/ADR-RES ovarian = test system: NCI/ADR-RES ovarian
HCC-2998 colon = test system: HCC-2998 colon
HT29 colon = test system: HT29 colon
SF-268 CNS = test system: SF-268 CNS
DU-145 prostate = test system: DU-145 prostate
MDA-N = test system: MDA-N
MALME-3M melanoma = test system: MALME-3M melanoma
NCI-H522 lung = test system: NCI-H522 lung
OVCAR-8 ovarian = test system: OVCAR-8 ovarian

SMILES | TGI (UO-31 renal) [µM] | TGI (SR leukemia) [µM] | TGI (K-562 leukemia) [µM] | TGI (NCI/ADR-RES ovarian) [µM] | TGI (HCC-2998 colon) [µM] | TGI (HT29 colon) [µM] | TGI (SF-268 CNS) [µM] | TGI (DU-145 prostate) [µM] | TGI (MDA-N) [µM] | TGI (MALME-3M melanoma) [µM] | TGI (NCI-H522 lung) [µM] | TGI (OVCAR-8 ovarian) [µM]
COC(OC)C(O)C1OC=CC1n1cnc2c(N)ncnc21 (configuration not stated) | > 100 | > 100 | > 100 | > 100 | > 100 | > 100 | > 100 | > 100 | > 100 | – | – | –
CC1(C)[C@@H]2C[C@H]1c1cnc(-c3ccccn3)cc1C2[C@@H]1c2cc(-c3ccccn3)ncc2[C@@H]2C[C@H]1C2(C)C (some centres not stated) | 85.9 | > 100 | > 100 | > 100 | > 100 | > 100 | > 100 | > 100 | > 100 | > 100 | > 100 | > 100
O=C1OS2(OCc3cccc4cccc2c34)c2ccccc21 (configuration not stated) | > 100 | > 100 | > 100 | > 100 | > 100 | > 100 | > 100 | > 100 | > 100 | > 100 | > 100 | –
COC(=O)c1cncc2c1CC1C3(C(=O)OC)C=NC(C4C(CO)=CCC43)C21C (configuration not stated) | > 100 | > 100 | – | > 100 | > 100 | > 100 | > 100 | > 100 | > 100 | > 100 | > 100 | > 100
O=C(c1ccco1)N(C(=S)OCc1ccccn1)c1ccccc1 | > 100 | 8.58 | > 100 | > 100 | – | > 100 | > 100 | > 100 | > 100 | 79.2 | – | > 100
O=C1C=CC(=O)c2ncccc21 | 9.03 | 5.88 | > 24.7 | 36.1 | 21 | 16.7 | 27.1 | 20.4 | 16.1 | 9.78 | 3.44 | 26.5
O=C1[C@@H]2Cc3c([nH]c4ccccc34)C(C3CCCCC3)N2C(=O)[C@@H]2CCCN12 (some centres not stated) | > 100 | 46.8 | > 100 | 78.7 | – | 73.4 | > 100 | > 100 | > 100 | 51.1 | 63.1 | > 100
O=C1c2ccccc2CC12Cc1ccc3c(c1C2)CCC3 (configuration not stated) | > 100 | 44.1 | > 100 | 28.4 | 54.7 | 29.2 | > 100 | > 100 | 44.4 | 30.3 | 25.2 | > 100
CC(C)(C)N1Cc2ccccc2/C(=C/Sc2ccccc2)C1=O | 24.8 | > 39.4 | > 100 | 33.6 | 34.4 | 35.6 | 20.2 | 32.7 | 21.8 | 28.7 | 11.4 | 22.3
O=C1NC(N/N=C\c2ccccc2)=N/C1=C/c1ccc(Cl)cc1 | 36.2 | 40.1 | > 100 | 56.6 | 36.9 | > 100 | 94.7 | > 100 | > 100 | 62.1 | 44.4 | 49.6
